Laboratory results taken from a compilation of properties of binary mixtures (doi:10.1021/je990135o).

Test: excess molar enthalpy (molar enthalpy of mixing); xn = mol fraction of the nth substance listed
Details: 100 kPa

CCCCOCCOCCO + CCOC(=O)OCC
Details	excess molar enthalpy [kcal/mol]
298.15 K, x2 = 0.0553	0.0217
298.15 K, x2 = 0.1047	0.0433
298.15 K, x2 = 0.1493	0.06
298.15 K, x2 = 0.1896	0.0793
298.15 K, x2 = 0.2598	0.106
298.15 K, x2 = 0.3188	0.125
298.15 K, x2 = 0.4125	0.151
298.15 K, x2 = 0.4834	0.165
298.15 K, x2 = 0.584	0.176
298.15 K, x2 = 0.6781	0.175
298.15 K, x2 = 0.8081	0.15
298.15 K, x2 = 0.8488	0.131
298.15 K, x2 = 0.8939	0.104
298.15 K, x2 = 0.9182	0.0884
298.15 K, x2 = 0.944	0.0641
298.15 K, x2 = 0.9712	0.0356
313.15 K, x2 = 0.1043	0.0521
313.15 K, x2 = 0.1488	0.0743
313.15 K, x2 = 0.3179	0.149
313.15 K, x2 = 0.4114	0.175
313.15 K, x2 = 0.4823	0.193
313.15 K, x2 = 0.583	0.205
313.15 K, x2 = 0.6772	0.204
313.15 K, x2 = 0.7366	0.193
313.15 K, x2 = 0.8075	0.171
313.15 K, x2 = 0.8935	0.12
313.15 K, x2 = 0.9179	0.0973
313.15 K, x2 = 0.9438	0.0715
313.15 K, x2 = 0.9711	0.0392

CCCCOCCO + CCOC(=O)OCC
298.15 K
Details	excess molar enthalpy [kcal/mol]
x2 = 0.043	0.0402
x2 = 0.0431	0.038
x2 = 0.0824	0.076
x2 = 0.0827	0.0707
x2 = 0.1188	0.107
x2 = 0.1191	0.098
x2 = 0.2123	0.177
x2 = 0.2129	0.163
x2 = 0.265	0.191
x2 = 0.3503	0.254
x2 = 0.351	0.229
x2 = 0.4181	0.278
x2 = 0.4189	0.25
x2 = 0.5196	0.268
x2 = 0.6138	0.267
x2 = 0.618	0.295
x2 = 0.6832	0.281
x2 = 0.7639	0.245
x2 = 0.7644	0.227
x2 = 0.8118	0.218
x2 = 0.8123	0.202
x2 = 0.8661	0.173
x2 = 0.8665	0.159
x2 = 0.8961	0.142
x2 = 0.8964	0.134
x2 = 0.9228	0.0593
x2 = 0.9283	0.106
x2 = 0.9285	0.0994

COCCO + CCOC(=O)OCC
298.15 K
Details	excess molar enthalpy [kcal/mol]
x2 = 0.0263	0.0225
x2 = 0.0264	0.0191
x2 = 0.0512	0.0437
x2 = 0.0514	0.0363
x2 = 0.075	0.0607
x2 = 0.0975	0.0798
x2 = 0.0978	0.0672
x2 = 0.1395	0.112
x2 = 0.1398	0.0973
x2 = 0.1777	0.138
x2 = 0.1781	0.119
x2 = 0.2454	0.153
x2 = 0.3017	0.208
x2 = 0.3023	0.178
x2 = 0.3933	0.246
x2 = 0.3941	0.211
x2 = 0.4931	0.268
x2 = 0.4939	0.23
x2 = 0.5646	0.274
x2 = 0.5653	0.237
x2 = 0.6605	0.265
x2 = 0.6611	0.23
x2 = 0.7217	0.247
x2 = 0.7223	0.218
x2 = 0.796	0.188
x2 = 0.8384	0.182
x2 = 0.8388	0.164
x2 = 0.8861	0.142
x2 = 0.8864	0.129
x2 = 0.9396	0.0841
x2 = 0.9398	0.0767

CCOCCOCCO + CCOC(=O)OCC
Details	excess molar enthalpy [kcal/mol]
298.15 K, x2 = 0.1227	0.0459
298.15 K, x2 = 0.1571	0.0614
298.15 K, x2 = 0.2185	0.0837
298.15 K, x2 = 0.2716	0.102
298.15 K, x2 = 0.3587	0.128
298.15 K, x2 = 0.4271	0.146
298.15 K, x2 = 0.528	0.163
298.15 K, x2 = 0.6911	0.168
298.15 K, x2 = 0.8173	0.141
298.15 K, x2 = 0.8995	0.0985
298.15 K, x2 = 0.9307	0.0748
298.15 K, x2 = 0.9641	0.0425
313.15 K, x2 = 0.0443	0.0198
313.15 K, x2 = 0.1222	0.0574
313.15 K, x2 = 0.1566	0.0767
313.15 K, x2 = 0.2313	0.109
313.15 K, x2 = 0.2708	0.126
313.15 K, x2 = 0.3578	0.157
313.15 K, x2 = 0.4261	0.175
313.15 K, x2 = 0.527	0.197
313.15 K, x2 = 0.6257	0.202
313.15 K, x2 = 0.7697	0.184
313.15 K, x2 = 0.8167	0.167
313.15 K, x2 = 0.8699	0.139
313.15 K, x2 = 0.8991	0.117
313.15 K, x2 = 0.9304	0.0872

COCCOCCO + CCOC(=O)OCC
Details	excess molar enthalpy [kcal/mol]
298.15 K, x2 = 0.0388	0.0174
298.15 K, x2 = 0.0748	0.0337
298.15 K, x2 = 0.1392	0.06
298.15 K, x2 = 0.1952	0.0827
298.15 K, x2 = 0.2444	0.103
298.15 K, x2 = 0.3267	0.126
298.15 K, x2 = 0.3927	0.146
298.15 K, x2 = 0.66	0.175
298.15 K, x2 = 0.7443	0.165
298.15 K, x2 = 0.7951	0.151
298.15 K, x2 = 0.8534	0.125
298.15 K, x2 = 0.8859	0.109
298.15 K, x2 = 0.9209	0.0827
298.15 K, x2 = 0.9588	0.0471
313.15 K, x2 = 0.0387	0.0201
313.15 K, x2 = 0.1077	0.0576
313.15 K, x2 = 0.1386	0.0739
313.15 K, x2 = 0.1945	0.101
313.15 K, x2 = 0.2436	0.125
313.15 K, x2 = 0.3257	0.157
313.15 K, x2 = 0.3916	0.179
313.15 K, x2 = 0.4914	0.202
313.15 K, x2 = 0.6589	0.215
313.15 K, x2 = 0.7435	0.201
313.15 K, x2 = 0.7944	0.185
313.15 K, x2 = 0.8529	0.156
313.15 K, x2 = 0.8854	0.133
313.15 K, x2 = 0.9587	0.0583

CCOCCO + CCOC(=O)OCC
Details	excess molar enthalpy [kcal/mol]
298.15 K, x2 = 0.0322	0.0225
298.15 K, x2 = 0.0624	0.0433
298.15 K, x2 = 0.1175	0.0801
298.15 K, x2 = 0.1666	0.11
298.15 K, x2 = 0.2104	0.136
298.15 K, x2 = 0.2855	0.171
298.15 K, x2 = 0.4442	0.223
298.15 K, x2 = 0.5454	0.234
298.15 K, x2 = 0.7057	0.221
298.15 K, x2 = 0.8275	0.17
298.15 K, x2 = 0.8648	0.145
298.15 K, x2 = 0.9056	0.111
313.15 K, x2 = 0.0321	0.028
313.15 K, x2 = 0.0623	0.0531
313.15 K, x2 = 0.0906	0.0753
313.15 K, x2 = 0.1173	0.0951
313.15 K, x2 = 0.2099	0.158
313.15 K, x2 = 0.285	0.199
313.15 K, x2 = 0.3469	0.226
313.15 K, x2 = 0.4436	0.256
313.15 K, x2 = 0.5447	0.27
313.15 K, x2 = 0.6146	0.271
313.15 K, x2 = 0.7052	0.254
313.15 K, x2 = 0.8271	0.193
313.15 K, x2 = 0.8645	0.165
313.15 K, x2 = 0.9054	0.124
313.15 K, x2 = 0.9503	0.0717
